Experimental data published in ChEMBL document CHEMBL4507274 (2021).

Assays:
[1] = molecular target: Tyrosine-protein kinase JAK1 (Homo sapiens) (UniProt P23458); conditions: Compound concentration 100.0 nM
[2] = molecular target: Calcium/calmodulin-dependent protein kinase type II subunit alpha (Homo sapiens) (UniProt Q9UQM7); conditions: Compound concentration 100.0 nM
[3] = tested on: Hepatocyte growth factor receptor (Homo sapiens), P08581 [M1250T]; conditions: Compound concentration 100.0 nM
[4] = molecular target: Phosphorylase b kinase regulatory subunit alpha, liver isoform (Homo sapiens) (UniProt P46019); conditions: Compound concentration 100.0 nM
Phosphorylase b kinase regulatory subunit alpha, liver isoform (Homo sapiens), sequence (P46019 whole entry, canonical isoform): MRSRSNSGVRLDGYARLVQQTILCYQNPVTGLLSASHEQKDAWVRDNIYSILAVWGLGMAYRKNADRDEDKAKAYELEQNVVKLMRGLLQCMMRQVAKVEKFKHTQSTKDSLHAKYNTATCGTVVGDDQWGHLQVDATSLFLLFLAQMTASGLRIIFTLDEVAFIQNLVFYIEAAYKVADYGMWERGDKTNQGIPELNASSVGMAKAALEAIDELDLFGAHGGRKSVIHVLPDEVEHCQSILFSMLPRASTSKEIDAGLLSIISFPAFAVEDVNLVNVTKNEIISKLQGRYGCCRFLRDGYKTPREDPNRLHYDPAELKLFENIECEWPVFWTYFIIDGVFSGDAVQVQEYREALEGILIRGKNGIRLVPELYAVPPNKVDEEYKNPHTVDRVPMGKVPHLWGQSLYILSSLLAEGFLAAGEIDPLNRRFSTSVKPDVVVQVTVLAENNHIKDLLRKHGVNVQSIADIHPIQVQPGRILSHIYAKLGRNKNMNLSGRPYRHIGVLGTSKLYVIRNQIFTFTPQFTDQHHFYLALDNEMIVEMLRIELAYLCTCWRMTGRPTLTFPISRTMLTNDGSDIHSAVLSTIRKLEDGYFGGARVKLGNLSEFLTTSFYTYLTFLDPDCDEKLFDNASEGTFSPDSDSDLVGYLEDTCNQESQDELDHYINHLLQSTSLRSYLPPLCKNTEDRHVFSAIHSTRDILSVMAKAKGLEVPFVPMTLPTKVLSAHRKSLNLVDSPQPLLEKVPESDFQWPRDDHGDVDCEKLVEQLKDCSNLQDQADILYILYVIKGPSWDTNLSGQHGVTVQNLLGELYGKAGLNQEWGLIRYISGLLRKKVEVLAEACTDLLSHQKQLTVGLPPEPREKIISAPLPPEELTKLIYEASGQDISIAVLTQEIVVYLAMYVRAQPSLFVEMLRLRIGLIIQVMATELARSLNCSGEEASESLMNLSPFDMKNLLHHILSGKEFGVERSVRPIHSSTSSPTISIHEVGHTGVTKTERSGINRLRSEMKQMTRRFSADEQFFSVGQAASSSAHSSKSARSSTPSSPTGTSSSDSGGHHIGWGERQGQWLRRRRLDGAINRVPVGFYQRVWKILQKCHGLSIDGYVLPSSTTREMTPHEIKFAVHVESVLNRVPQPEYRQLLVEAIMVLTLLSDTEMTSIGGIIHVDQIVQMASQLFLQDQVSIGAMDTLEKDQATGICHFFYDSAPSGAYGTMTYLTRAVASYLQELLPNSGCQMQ

[5] = molecular target: Insulin-like growth factor 1 receptor (Homo sapiens) (UniProt P08069); conditions: Compound concentration 100.0 nM
Insulin-like growth factor 1 receptor (Homo sapiens), sequence (P08069 31-736 limits assumed): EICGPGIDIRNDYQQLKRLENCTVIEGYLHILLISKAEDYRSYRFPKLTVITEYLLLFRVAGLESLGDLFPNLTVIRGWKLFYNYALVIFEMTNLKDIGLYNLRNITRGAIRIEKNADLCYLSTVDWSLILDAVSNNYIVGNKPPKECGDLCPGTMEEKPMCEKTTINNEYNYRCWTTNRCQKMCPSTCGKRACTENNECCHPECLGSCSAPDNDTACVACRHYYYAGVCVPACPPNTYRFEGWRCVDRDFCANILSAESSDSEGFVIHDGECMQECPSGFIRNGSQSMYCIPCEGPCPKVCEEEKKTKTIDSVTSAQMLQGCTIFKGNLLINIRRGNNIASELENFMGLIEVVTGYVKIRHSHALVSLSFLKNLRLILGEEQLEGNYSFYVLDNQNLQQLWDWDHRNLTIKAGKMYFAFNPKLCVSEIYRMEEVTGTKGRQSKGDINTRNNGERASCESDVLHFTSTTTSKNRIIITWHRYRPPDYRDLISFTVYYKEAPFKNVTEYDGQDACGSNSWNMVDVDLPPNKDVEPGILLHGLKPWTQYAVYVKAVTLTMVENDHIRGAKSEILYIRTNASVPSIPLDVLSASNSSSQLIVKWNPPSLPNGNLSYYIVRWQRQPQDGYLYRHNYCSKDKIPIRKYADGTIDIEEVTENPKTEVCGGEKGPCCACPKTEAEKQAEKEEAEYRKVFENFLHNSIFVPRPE
Insulin-like growth factor 1 receptor (Homo sapiens), sequence (P08069 741-1367 limits assumed): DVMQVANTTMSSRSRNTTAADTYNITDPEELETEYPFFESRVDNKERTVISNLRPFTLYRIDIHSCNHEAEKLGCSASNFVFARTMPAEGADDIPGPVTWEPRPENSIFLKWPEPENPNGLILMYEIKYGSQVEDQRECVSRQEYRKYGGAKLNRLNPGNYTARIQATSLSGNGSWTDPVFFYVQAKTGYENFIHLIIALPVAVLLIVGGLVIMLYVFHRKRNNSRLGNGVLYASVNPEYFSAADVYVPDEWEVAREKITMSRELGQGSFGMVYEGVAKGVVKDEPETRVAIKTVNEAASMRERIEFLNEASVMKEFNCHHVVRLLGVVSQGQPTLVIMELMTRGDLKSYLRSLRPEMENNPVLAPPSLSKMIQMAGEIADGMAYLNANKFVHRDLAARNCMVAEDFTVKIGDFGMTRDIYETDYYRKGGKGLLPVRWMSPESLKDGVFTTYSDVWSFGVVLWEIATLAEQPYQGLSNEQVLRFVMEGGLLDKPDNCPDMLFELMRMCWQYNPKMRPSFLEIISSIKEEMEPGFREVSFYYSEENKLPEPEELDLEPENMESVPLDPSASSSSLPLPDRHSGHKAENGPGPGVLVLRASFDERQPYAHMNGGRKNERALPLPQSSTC

[6] = molecular target: Serine/threonine-protein kinase ULK2 (Homo sapiens) (UniProt Q8IYT8); conditions: Compound concentration 100.0 nM
[7] = molecular target: Serine/threonine-protein kinase PLK3 (Homo sapiens) (UniProt Q9H4B4); conditions: Compound concentration 100.0 nM
[8] = tested on: Mast/stem cell growth factor receptor Kit (Homo sapiens), P10721 [L576P]; conditions: Compound concentration 100.0 nM
[9] = molecular target: Tyrosine-protein kinase JAK3 (Homo sapiens) (UniProt P52333); conditions: Compound concentration 100.0 nM
Tyrosine-protein kinase JAK3 (Homo sapiens), sequence (P52333 whole entry): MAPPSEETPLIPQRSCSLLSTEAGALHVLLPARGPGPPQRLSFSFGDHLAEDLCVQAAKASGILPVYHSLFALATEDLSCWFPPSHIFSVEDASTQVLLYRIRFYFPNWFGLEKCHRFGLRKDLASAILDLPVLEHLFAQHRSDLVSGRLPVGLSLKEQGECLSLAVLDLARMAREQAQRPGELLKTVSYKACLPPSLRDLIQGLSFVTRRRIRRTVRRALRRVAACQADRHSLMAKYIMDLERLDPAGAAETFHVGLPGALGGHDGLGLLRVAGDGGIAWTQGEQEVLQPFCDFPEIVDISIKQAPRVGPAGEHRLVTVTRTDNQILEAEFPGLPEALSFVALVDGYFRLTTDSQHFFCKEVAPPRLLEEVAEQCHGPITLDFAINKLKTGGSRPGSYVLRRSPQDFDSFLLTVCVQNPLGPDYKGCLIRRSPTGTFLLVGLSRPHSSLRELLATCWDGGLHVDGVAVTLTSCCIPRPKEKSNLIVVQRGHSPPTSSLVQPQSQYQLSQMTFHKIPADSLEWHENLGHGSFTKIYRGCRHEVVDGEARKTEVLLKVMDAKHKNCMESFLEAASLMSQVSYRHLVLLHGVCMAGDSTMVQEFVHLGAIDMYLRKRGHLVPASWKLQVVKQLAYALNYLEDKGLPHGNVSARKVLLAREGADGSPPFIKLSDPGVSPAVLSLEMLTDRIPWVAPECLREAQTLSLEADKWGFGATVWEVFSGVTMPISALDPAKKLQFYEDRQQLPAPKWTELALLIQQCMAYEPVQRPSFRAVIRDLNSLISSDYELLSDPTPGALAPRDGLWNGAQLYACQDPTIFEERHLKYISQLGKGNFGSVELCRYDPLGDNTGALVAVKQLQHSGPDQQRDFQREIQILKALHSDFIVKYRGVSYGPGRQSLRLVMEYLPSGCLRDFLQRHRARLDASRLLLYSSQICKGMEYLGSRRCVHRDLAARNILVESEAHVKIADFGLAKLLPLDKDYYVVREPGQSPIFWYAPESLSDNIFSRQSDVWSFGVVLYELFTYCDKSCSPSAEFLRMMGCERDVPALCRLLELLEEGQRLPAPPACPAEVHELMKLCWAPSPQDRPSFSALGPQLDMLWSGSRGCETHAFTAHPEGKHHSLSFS

[10] = molecular target: Mitogen-activated protein kinase 14 (Homo sapiens) (UniProt Q16539); conditions: Compound concentration 100.0 nM
Mitogen-activated protein kinase 14 (Homo sapiens), sequence (Q16539 whole entry): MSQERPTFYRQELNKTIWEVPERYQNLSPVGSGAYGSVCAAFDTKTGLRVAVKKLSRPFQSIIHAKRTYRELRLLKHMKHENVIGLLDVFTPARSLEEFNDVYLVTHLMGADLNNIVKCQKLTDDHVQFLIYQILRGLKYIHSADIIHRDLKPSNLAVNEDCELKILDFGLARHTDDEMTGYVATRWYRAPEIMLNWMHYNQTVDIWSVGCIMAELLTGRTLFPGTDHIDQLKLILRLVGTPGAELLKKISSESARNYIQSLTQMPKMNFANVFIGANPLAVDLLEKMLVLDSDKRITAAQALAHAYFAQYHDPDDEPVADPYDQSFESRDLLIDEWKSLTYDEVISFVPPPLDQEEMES

[11] = molecular target: Receptor tyrosine-protein kinase erbB-4 (Homo sapiens) (UniProt Q15303); conditions: Compound concentration 100.0 nM
[12] = molecular target: Mitogen-activated protein kinase kinase kinase 10 (Homo sapiens) (UniProt Q02779); conditions: Compound concentration 100.0 nM
[13] = molecular target: Mitogen-activated protein kinase kinase kinase 2 (Homo sapiens) (UniProt Q9Y2U5); conditions: Compound concentration 100.0 nM
[14] = molecular target: Activin receptor type-1B (Homo sapiens) (UniProt P36896); conditions: Compound concentration 100.0 nM
Activin receptor type-1B (Homo sapiens), sequence (P36896 whole entry): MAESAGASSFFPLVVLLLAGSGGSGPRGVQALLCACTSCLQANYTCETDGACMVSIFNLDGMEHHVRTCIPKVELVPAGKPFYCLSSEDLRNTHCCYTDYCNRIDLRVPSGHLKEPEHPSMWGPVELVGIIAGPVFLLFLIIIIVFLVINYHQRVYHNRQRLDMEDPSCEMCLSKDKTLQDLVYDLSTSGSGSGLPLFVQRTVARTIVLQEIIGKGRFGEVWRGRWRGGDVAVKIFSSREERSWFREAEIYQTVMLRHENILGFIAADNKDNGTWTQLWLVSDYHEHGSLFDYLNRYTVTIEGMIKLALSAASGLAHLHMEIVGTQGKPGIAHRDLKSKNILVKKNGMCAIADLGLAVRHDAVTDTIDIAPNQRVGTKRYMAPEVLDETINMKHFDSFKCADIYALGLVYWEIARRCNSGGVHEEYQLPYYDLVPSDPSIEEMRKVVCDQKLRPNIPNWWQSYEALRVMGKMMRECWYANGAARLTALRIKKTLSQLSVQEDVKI

[15] = molecular target: High affinity nerve growth factor receptor (Homo sapiens) (UniProt P04629); conditions: Compound concentration 100.0 nM
[16] = molecular target: Serine/threonine-protein kinase ICK (Homo sapiens) (UniProt Q9UPZ9); conditions: Compound concentration 100.0 nM
[17] = molecular target: MAP/microtubule affinity-regulating kinase 4 (Homo sapiens) (UniProt Q96L34); conditions: Compound concentration 100.0 nM
[18] = molecular target: Hormonally up-regulated neu tumor-associated kinase (Homo sapiens) (UniProt P57058); conditions: Compound concentration 100.0 nM
[19] = molecular target: Mitogen-activated protein kinase kinase kinase kinase 1 (Homo sapiens) (UniProt Q92918); conditions: Compound concentration 100.0 nM
[20] = molecular target: D(2) dopamine receptor (Homo sapiens) (UniProt P14416); conditions: Compound concentration 10.0 uM
D(2) dopamine receptor (Homo sapiens), sequence (P14416 whole entry): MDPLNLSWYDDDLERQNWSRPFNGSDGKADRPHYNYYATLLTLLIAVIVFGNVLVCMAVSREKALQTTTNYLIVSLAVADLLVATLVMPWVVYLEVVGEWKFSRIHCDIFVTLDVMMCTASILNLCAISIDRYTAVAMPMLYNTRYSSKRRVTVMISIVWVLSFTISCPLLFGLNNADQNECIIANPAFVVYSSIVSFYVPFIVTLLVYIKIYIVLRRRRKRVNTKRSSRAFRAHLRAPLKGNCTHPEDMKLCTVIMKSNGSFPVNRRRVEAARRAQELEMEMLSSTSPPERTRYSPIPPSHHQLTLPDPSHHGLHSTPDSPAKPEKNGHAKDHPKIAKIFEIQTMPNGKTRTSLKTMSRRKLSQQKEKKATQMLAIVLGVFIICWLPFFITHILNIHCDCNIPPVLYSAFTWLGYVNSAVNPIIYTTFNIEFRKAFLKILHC

[21] = tested on: Leucine-rich repeat serine/threonine-protein kinase 2 (Homo sapiens), Q5S007 [G2019S]; conditions: Compound concentration 100.0 nM
[22] = tested on: Serine/threonine-protein kinase B-raf (Homo sapiens), P15056 [V600E]; conditions: Compound concentration 100.0 nM
[23] = molecular target: Serine/threonine-protein kinase MARK2 (Homo sapiens) (UniProt Q7KZI7); conditions: Compound concentration 100.0 nM
[24] = molecular target: Ribosomal protein S6 kinase beta-1 (Homo sapiens) (UniProt P23443); conditions: Compound concentration 100.0 nM
[25] = molecular target: NUAK family SNF1-like kinase 2 (Homo sapiens) (UniProt Q9H093); conditions: Compound concentration 100.0 nM
[26] = molecular target: Dual specificity protein kinase CLK2 (Homo sapiens) (UniProt P49760); conditions: Compound concentration 100.0 nM
[27] = molecular target: Calcium/calmodulin-dependent protein kinase type 1G (Homo sapiens) (UniProt Q96NX5); conditions: Compound concentration 100.0 nM
[28] = molecular target: Mast/stem cell growth factor receptor Kit (Homo sapiens) (UniProt P10721); conditions: Compound concentration 100.0 nM
[29] = molecular target: Cyclin-dependent kinase 18 (Homo sapiens) (UniProt Q07002); conditions: Compound concentration 100.0 nM
[30] = molecular target: Histamine H3 receptor (Homo sapiens) (UniProt Q9Y5N1); conditions: Compound concentration 10.0 uM
[31] = molecular target: Serine/threonine-protein kinase LATS2 (Homo sapiens) (UniProt Q9NRM7); conditions: Compound concentration 100.0 nM
[32] = molecular target: Serine/threonine-protein kinase PLK1 (Homo sapiens) (UniProt P53350); conditions: Compound concentration 100.0 nM
[33] = molecular target: Vascular endothelial growth factor receptor 3 (Homo sapiens) (UniProt P35916); conditions: Compound concentration 100.0 nM
[34] = molecular target: Focal adhesion kinase 1 (Homo sapiens) (UniProt Q05397); conditions: Compound concentration 100.0 nM
[35] = molecular target: Mitogen-activated protein kinase 6 (Homo sapiens) (UniProt Q16659); conditions: Compound concentration 100.0 nM
[36] = molecular target: G protein-coupled receptor kinase 4 (Homo sapiens) (UniProt P32298); conditions: Compound concentration 100.0 nM
[37] = molecular target: Ribosomal protein S6 kinase alpha-2 (Homo sapiens) (UniProt Q15349); conditions: Compound concentration 100.0 nM
[38] = molecular target: Serine/threonine-protein kinase Nek7 (Homo sapiens) (UniProt Q8TDX7); conditions: Compound concentration 100.0 nM
[39] = molecular target: Serine/threonine-protein kinase MRCK beta (Homo sapiens) (UniProt Q9Y5S2); conditions: Compound concentration 100.0 nM
[40] = molecular target: Myosin light chain kinase (Homo sapiens) (UniProt Q32MK0); conditions: Compound concentration 100.0 nM
[41] = molecular target: Mitogen-activated protein kinase kinase kinase 7 (Homo sapiens) (UniProt O43318); conditions: Compound concentration 100.0 nM
[42] = molecular target: Leucine-rich repeat serine/threonine-protein kinase 2 (Homo sapiens) (UniProt Q5S007); conditions: Compound concentration 100.0 nM
[43] = tested on: Phosphatidylinositol 4,5-bisphosphate 3-kinase catalytic subunit alpha isoform (Homo sapiens), P42336 [E545K]; conditions: Compound concentration 100.0 nM
[44] = molecular target: Discoidin domain-containing receptor 2 (Homo sapiens) (UniProt Q16832); conditions: Compound concentration 100.0 nM
[45] = molecular target: Tyrosine-protein kinase HCK (Homo sapiens) (UniProt P08631); conditions: Compound concentration 100.0 nM

Cc1c[nH]c2nccc(Oc3c(F)cc(Nc4cc(Cl)nc(N)n4)cc3F)c12 [BAY-549]
residual activity [1]: 84%
residual activity [2]: 70%
residual activity [3]: 99%
residual activity [4]: 89%
residual activity [5]: 86%
residual activity [6]: 89%
residual activity [7]: 83%
residual activity [8]: 72%
residual activity [9]: 92%
residual activity [10]: 100%
residual activity [11]: 100%
residual activity [12]: 100%
residual activity [13]: 89%
residual activity [14]: 87%
residual activity [15]: 81%
residual activity [16]: 79%
residual activity [17]: 100%
residual activity [18]: 100%
residual activity [19]: 73%
inhibition [20]: -4.56%
residual activity [21]: 100%
residual activity [22]: 98%
residual activity [23]: 100%
residual activity [24]: 85%
residual activity [25]: 85%
residual activity [26]: 86%
residual activity [27]: 97%
residual activity [28]: 75%
residual activity [29]: 100%
inhibition [30]: 8.13%
residual activity [31]: 0.7%
residual activity [32]: 75%
residual activity [33]: 98%
residual activity [34]: 100%
residual activity [35]: 95%
residual activity [36]: 100%
residual activity [37]: 82%
residual activity [38]: 100%
residual activity [39]: 70%
residual activity [40]: 91%
residual activity [41]: 92%
residual activity [42]: 100%
residual activity [43]: 82%
residual activity [44]: 57%
residual activity [45]: 100%

Cn1cc(Cl)c2c(Oc3c(F)cc(Nc4cc(Cl)nc(N)n4)cc3F)ccnc21 [BAY-4900]
residual activity [1]: 83%
residual activity [2]: 82%
residual activity [3]: 100%
residual activity [4]: 100%
residual activity [5]: 97%
residual activity [6]: 100%
residual activity [7]: 98%
residual activity [8]: 100%
residual activity [9]: 94%
residual activity [10]: 100%
residual activity [11]: 97%
residual activity [12]: 100%
residual activity [13]: 79%
residual activity [14]: 98%
residual activity [15]: 74%
residual activity [16]: 100%
residual activity [17]: 100%
residual activity [18]: 100%
residual activity [19]: 82%
inhibition [20]: 1.05%
residual activity [21]: 100%
residual activity [22]: 100%
residual activity [23]: 100%
residual activity [24]: 84%
residual activity [25]: 85%
residual activity [26]: 87%
residual activity [27]: 100%
residual activity [28]: 95%
residual activity [29]: 100%
inhibition [30]: 31%
residual activity [31]: 91%
residual activity [32]: 83%
residual activity [33]: 96%
residual activity [34]: 100%
residual activity [35]: 100%
residual activity [36]: 100%
residual activity [37]: 95%
residual activity [38]: 100%
residual activity [39]: 100%
residual activity [40]: 94%
residual activity [41]: 100%
residual activity [42]: 75%
residual activity [43]: 78%
residual activity [44]: 66%
residual activity [45]: 100%
